According to a melting point compilation (Tetko et al.; mined from patent text by program, amines drawn as free bases though some values may be those of a salt):

SMILES | melting point
O=C(Nc1cccc2cnccc12)NC1CC2(CCOCC2)Oc2ccccc21 (configuration not stated) | 220 °C
CSC(Nc1cc(C(F)(F)F)cc(C(F)(F)F)c1)=C(C#N)S(=O)(=O)c1ccc(Cl)cc1 | 150 to 152 °C
CC(=O)N1CCNC1=NC(c1ccccc1)c1ccccc1 | 234 to 236 °C
NC(=NO)c1cc2cc(F)c(F)cc2o1 | 184 °C
CC(C)(C)COC(=O)Cc1cccc2c(=O)cc(C3=CCCCC3)oc12 | 138 to 139 °C
CCOCCOc1ccc(C(=O)CN(Cc2ccccc2)Cc2ccccc2)cc1C(=O)OC | 57 °C
C#CC[C@H]1C(=O)O[C@@H]1C[C@@H](CCCCCCCCCCCCCCCCC)O[Si](C)(C)C(C)(C)C | 62 to 63 °C
CC(C)[C@H](NC(=O)OCc1ccccc1)C(=O)NCCCNC(=O)[C@@H](NC(=O)OCc1ccccc1)C(C)C | 211 to 212 °C
CCCCCCCCCCC[C@@H]1CC(O)=C(CCCCCC)C(=O)O1 | 106 to 108 °C
Cc1cc(-c2nc3c(Cl)cccc3c(=O)n2-c2ccc(Br)cc2)cc(C)c1OCCO | 185 to 186 °C
CN1CCN(Cc2ccc(-c3nc4cc([N+](=O)[O-])ccc4o3)s2)CC1 | 135 to 137 °C
O=C(c1ccc(F)cc1)C1CCN(CCN2CNc3ccccc3C2=O)CC1 | 203 °C
Cc1ccc(-c2nc(C)cc(O)n2)cc1 | 206 to 207 °C
CCCC(=O)Nc1nc(CN2CCN(C(c3ccccc3)c3ccccc3)CC2)cs1 | 128 to 135 °C
COCCOCCOc1ccc2c(c1)S(=O)(=O)N(CCl)C2=O | 113 to 115 °C
CCCCCCCCCCCCCCCC(=O)OC1CN(C)C2(C1)C1CC3CC(C1)CC2C3 (configuration not stated) | 50 to 53 °C
CC(=O)NCC1CN(c2ccc(N3CCN(c4nc(=O)n(-c5ccccc5)s4)CC3)c(F)c2)C(=O)O1 (configuration not stated) | 245 to 247 °C
CCOC(=O)c1ccc(C(=O)CC(O)(c2cc(Cl)cc(Cl)c2)C(F)(F)F)cc1C (configuration not stated) | 72 to 74 °C
O=C(O)c1ccc(N2CCSCC2)cc1 | 233 to 235 °C
C#Cc1ccc(CO[C@@H]2COc3nc([N+](=O)[O-])cn3C2)cc1 | 162 to 164 °C
c1cc(-n2ccnc2)nc(-n2cnc3cc(-c4ccoc4)ccc32)c1 | 170 to 173 °C
CCOC(=O)CS(=O)CCCCl (configuration not stated) | 46 to 47 °C
COc1ccc2nc(C(=O)NCC(=O)O)c(OCc3ccccc3)cc2c1 | 118 °C
CC(=O)c1cnc2c(cnn2Cc2ccco2)c1O | 108 to 110 °C
CC(C)Oc1ccc(Cc2cc3cccc(-c4cccc(C(=O)NCCO)c4)c3s2)cn1 | 106 to 107 °C

SMILES | melting point
C=CCOc1ccc(C[C@@H](NC(C)=O)C(=O)O)cc1 | 75 °C
COc1ccc(-c2nc(CN)no2)cc1 | 66 to 68 °C
CCOC(=O)Nc1cc(I)c(NS(C)(=O)=O)cc1OC | 153 to 155 °C
C[C@H](NC(=O)OC(C)(C)C)[C@@H]1CCN(c2nc3c(cc2F)c(=O)n(N)c(=O)n3C2CC2)C1 | 175 to 177 °C
CC(C)(C)c1ccc(CN2CCC3(CC2)CC(=O)c2ccccc2O3)cc1 | 149 to 151 °C
CCCCc1nc(S(C)=O)c(C(=O)OCC)n1CC1Oc2ccc(Cl)cc2O1 (configuration not stated) | 103 °C
CCOC(=O)c1nc(N)sc1C(=O)c1ccccn1 | 143 to 144 °C
Cc1c(-c2ccc(OCc3ccccc3)cc2)n(C(=O)c2ccc(OCCN3CCCCC3)cc2)c2ccc(OCc3ccccc3)cc12 | 48 to 51 °C
CCn1c(C=NNC(N)=S)cnc1[N+](=O)[O-] | 220 to 222 °C
CCCCC(C)(C)C(O)CCN1C(=O)NC(=O)C1CCCCCCC(=O)O (configuration not stated) | 90 to 98 °C
CCc1ccc(Oc2ccc(N3CCN(c4cccc(C)c4)CC3)nn2)cc1 | 107 °C
CCOC(=O)C(Cc1ccc(C(F)(F)F)cc1)C(=O)c1ccc(F)c(F)c1 (configuration not stated) | 48 to 49 °C
O=C1N(Cc2ncccc2C(F)F)c2ccccc2C12COc1cc3c(cc12)OCCO3 (configuration not stated) | 181 to 182 °C
CCc1cccc2c(S(=O)(=O)c3ccc(C)cc3)cnnc12 | 133 to 134 °C
CC#CC(C)(C)NC(=O)C(CC)Oc1ccc2ccncc2c1 (configuration not stated) | 149 to 150 °C
CC(C)(C)C(=N)Nc1ccccc1N1CCOCC1 | 126 °C
CC(C)C(=O)N1C2=NC(C)(C)N(C)C(=O)N2c2ccccc21 | 99 to 102 °C
O=C1OC2(C=C1c1ccccc1)C=C(c1ccccc1)C(=O)O2 | 235 to 237 °C
Cc1cccc2c1CCN(C1CN3CCC1CC3)C2=O (racemic) | > 270 °C
CCOC(=O)C1=C(C)NN=C(CC)C1c1ccccc1C(F)(F)F (configuration not stated) | 124 °C
COc1ccc(N2CCC(=O)N(c3ccc(C)cc3)CC2)c(-c2ccc(N(C)C)cc2)n1 | 174 to 175 °C
CN(C)S(=O)(=O)c1ccc(O)c(O)c1 | 142 °C
Cc1nc(N2CCCN(Cc3ccc(F)cc3)C2=O)sc1C(=O)NCc1cccnc1 | 48 to 50 °C
O=C1COc2ccccc2CN1Cc1ccccc1 | 95 to 97 °C
Fc1cccc(Cn2ncc3cc(Nc4ncnc5cnc(F)cc45)ccc32)c1 | 218 to 221 °C

SMILES | melting point
CCOC(=O)C(C)N(c1ccc(S(=O)(=O)c2ccccc2)cc1C(F)(F)F)S(C)(=O)=O (configuration not stated) | 121 °C
COC(=O)c1cc(O)c2c(ccc3sc4ccc(F)cc4c32)n1 | 269 to 271 °C
NC(=O)[C@@H]1[C@H](Nc2c(Br)cnc3[nH]c(-c4cncnc4)nc23)[C@H]2C=C[C@@H]1C2 | > 300 °C
COc1ccc(S(=O)(=O)C2(C(=O)O)CCN(C(C)C)CC2)cc1 | 204 °C
CCCC1(C(=O)NCCN2CCC(N3Cc4ccccc4C3=O)CC2)c2ccccc2-c2ccccc21 | 219 to 221 °C
CONC(=O)NC1(c2ccc(C(C)C)cc2OC)C(=O)c2ccccc2C1=O | 153 to 155 °C
CCn1c(=O)c2nc(-c3ccc(/C=C/C(=O)O)cc3)[nH]c2n(C)c1=O | > 300 °C
Cn1ccc2cc(NC(=O)Oc3ccccc3)ccc21 | 103 to 107 °C
O=C(c1nc(-c2ccccc2)nc2ccccc12)N1CCCCCC1 | 140 °C
CCOP(=O)(/C=C/c1cn(-c2ccccc2)nc1OCc1ccc(OCc2nc(-c3ccccc3)cn2C)c(OC)c1)OCC | 144 to 145 °C
COc1ccc(CNC=C(C(C)=O)C(C)=O)cc1 | 91.2 to 92.2 °C
CC(=O)N(C)C1CCNCC1 | < 50 °C
CNC(=O)N1CC[C@H](OCc2cc(C(F)(F)F)cc(C(F)(F)F)c2)[C@H](Cc2ccccc2)C1 (relative stereo) | 160 to 161 °C
O=C(Nc1ccccc1S(=O)(=O)c1ccccc1)N[C@@H](Cc1ccc(Nc2nccc3cnccc23)cc1)C(=O)O | 192 °C
COc1ccccc1[C@@]1(O)C[C@@H](C)C[C@@H]2CN(Cc3ccccc3)C[C@@H]21 (racemic) | 120 °C
O=C(OCC1CC1)c1ncn2c1[C@@H]1CCN1C(=O)c1cc(F)ccc1-2 | 171 to 172 °C
O=C(OCCN1CCCCCC1)c1ccccc1Nc1ccnc2cc(C(F)(F)F)ccc12 | 72 to 75 °C
CC(=O)SCC1(CSC(C)=O)C(=O)N2CCCC(C(=O)OC(C)(C)C)N2C1=O (configuration not stated) | 85 to 86 °C
CCC(=O)NCC1CC1c1cccc2nc(C(F)(F)F)cn12 (configuration not stated) | 148 to 151 °C
Cc1ccc(C2(c3ccc(C)cc3)OC(=O)N3CCN(C(=O)Nc4ccc(F)cc4F)CC32)cc1 (configuration not stated) | 120 to 122 °C
CCCCOc1c(N)c(=O)c1=O | 166 to 168 °C
Cc1occ(-c2ccccc2F)c1C(=O)Nc1cccc(CO)c1 | 163 to 164 °C
CC(C)(C)NC(=O)c1ccccc1C(c1ccc(O)cc1)c1ccc(O)cc1 | 264 to 266 °C
Cc1ccccc1Nc1nc(Cl)nc2ccccc12 | 192 to 194 °C
CC1(C)CCC(C)(C)c2cc(-c3cc([N+](=O)[O-])ccc3OS(=O)(=O)C(F)(F)F)ccc21 | 87 to 89 °C

SMILES | melting point
CC1(C)OC(c2ccc(S(C)(=O)=O)cc2)=C(c2cccc(F)c2)C1=O | 178 to 179 °C
CC(=O)OCc1nc2c(NCc3c(C)cccc3C)cc(Br)cc2n1C | 188 to 190 °C
CC(C)(C)OC(=O)Cn1c(=O)c(=O)[nH]c2cc(Cl)c(Cl)cc21 | > 300 °C
O=C(CBr)Nc1ccc(I)cc1 | 185 °C
CC1(C(=O)O)c2ccccc2Oc2ccccc21 | 87 to 88 °C
Cc1c[nH]c(Cc2ccccc2[N+](=O)[O-])n1 | 125 to 128 °C
CCOc1nsc(NC(=O)NC)c1C(N)=O | 240 to 241 °C
CCc1cc2c(O)c(C(=O)O)cnc2s1 | 238 to 239 °C
CS(=O)(=O)c1ccc(C2CC(=O)C(C(=O)c3ccc(Cl)cc3[N+](=O)[O-])C(=O)N2)cc1 (configuration not stated) | 296 to 299 °C
CCCCOc1ncc(-c2ccco2)cc1-c1nc2c(CC)n(CCOC)nc2c(=O)[nH]1 | 154 to 155 °C
c1ccc2c(c1)N=C(C1CCCCC1)c1cccc3c1N2CC3 | 104 to 106 °C
CCC(=O)OCCSCC(=O)NC/C=C\COc1cc(CN2CCCCC2)ccn1 | 99 to 106 °C
CON(c1ccc([N+](=O)[O-])cc1C#N)S(=O)(=O)c1ccc(Cl)s1 | 144 to 146 °C
Cc1cc(C)c(COc2cccnc2N)c(C)c1 | 160 to 166 °C
Cc1nn(Cc2ccccc2)cc1C(=O)Nc1ccc(N2CCC(N3CCOCC3)CC2)c(C#N)c1 | 193 °C
CCc1cn(C2CC(OC(C)=O)C(CNC(=O)Cc3ccccc3NC(C)=O)O2)c(=O)[nH]c1=O (configuration not stated) | 143 to 145 °C
O=[N+]([O-])c1ccccc1Sc1ncc[nH]1 | 137 to 138 °C
CC#CCOc1ccc(S(=O)(=O)C(C(=O)NO)C2CCN(C(C)=O)CC2)cc1 (configuration not stated) | 103 °C
CC(C)Oc1cc(O)c2c(=O)cc(Sc3ccc(O)cc3)oc2c1 | 205 to 207 °C
CC(=O)OCCN1CCC(CNC(=O)[C@@H]2CCCN2S(=O)(=O)c2ccc(Cl)c(COc3cccc4c(-n5ccnc5)cc(C)nc34)c2Cl)CC1 | 93 °C
Cc1c(Cc2ccccc2)c(=O)n2c(CN(C)Cc3ccccc3)c(-c3ccc(NC(=O)OC(C)(C)C)cc3)nc2n1Cc1c(F)cccc1F | 179 to 184 °C
O=C(CCCN1CCN(c2ccccn2)CC1)c1cccnc1 | 89 °C
